Source: ChEMBL document CHEMBL1817626, “The structure-activity relationship of urea derivatives as anti-tuberculosis agents” (Bioorg Med Chem, 2011)
≈ marks a conversion by molar mass, not a printed value.

Columns and labels:
[1] = biological target: T1, Epoxide hydrolase B (Mycobacterium tuberculosis) (UniProt P95276); assay: Inhibition of Mycobacterium tuberculosis recombinant EphB expressed in Escherichia coli BL21 using CMNPC as substrate at 10 nM after 30 mins by fluorescent assay relative to control
T1 sequence (whole entry): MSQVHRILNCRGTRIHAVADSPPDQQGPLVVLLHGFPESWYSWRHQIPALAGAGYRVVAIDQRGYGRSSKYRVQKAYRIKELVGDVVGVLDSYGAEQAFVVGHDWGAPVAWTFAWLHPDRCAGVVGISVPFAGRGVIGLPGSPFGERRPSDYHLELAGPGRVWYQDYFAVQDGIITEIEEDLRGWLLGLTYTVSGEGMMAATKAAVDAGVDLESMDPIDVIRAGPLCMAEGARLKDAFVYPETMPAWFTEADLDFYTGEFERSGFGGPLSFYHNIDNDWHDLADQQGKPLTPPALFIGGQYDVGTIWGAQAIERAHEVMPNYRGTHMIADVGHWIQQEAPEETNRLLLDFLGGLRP

Enterococcus faecium = assay: Antibacterial activity against Enterococcus faecium; assay type: functional
Staphylococcus aureus = assay: Antibacterial activity against Staphylococcus aureus; assay type: functional
Escherichia coli [2] = assay: Antibacterial activity against Escherichia coli […] TolC; assay type: functional
Klebsiella pneumoniae = assay: Antibacterial activity against Klebsiella pneumoniae; assay type: functional
[3] = biological target: T2, Bifunctional epoxide hydrolase 2 (Homo sapiens, UniProt P34913); assay: Inhibition of human recombinant soluble epoxide hydrolase using CMNPC as substrate after 10 mins by fluorescent assay
T2 sequence (P34913 whole entry): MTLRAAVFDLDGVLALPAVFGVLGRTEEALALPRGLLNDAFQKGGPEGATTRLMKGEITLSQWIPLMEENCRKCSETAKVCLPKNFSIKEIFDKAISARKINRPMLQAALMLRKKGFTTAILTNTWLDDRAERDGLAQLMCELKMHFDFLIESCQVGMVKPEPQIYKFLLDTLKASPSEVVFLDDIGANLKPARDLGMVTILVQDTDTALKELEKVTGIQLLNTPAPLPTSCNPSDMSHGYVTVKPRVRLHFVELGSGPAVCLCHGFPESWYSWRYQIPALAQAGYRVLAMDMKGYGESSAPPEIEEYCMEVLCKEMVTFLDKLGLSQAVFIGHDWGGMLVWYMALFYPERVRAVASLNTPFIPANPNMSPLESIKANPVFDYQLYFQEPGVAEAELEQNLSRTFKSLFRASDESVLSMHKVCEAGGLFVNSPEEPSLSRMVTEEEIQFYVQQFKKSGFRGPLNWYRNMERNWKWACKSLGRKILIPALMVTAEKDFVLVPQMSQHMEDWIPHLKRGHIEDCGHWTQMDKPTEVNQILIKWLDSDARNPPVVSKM

Pseudomonas aeruginosa = assay: Antibacterial activity against Pseudomonas aeruginosa; assay type: functional
Enterococcus faecalis = assay: Antibacterial activity against Enterococcus faecalis; assay type: functional
[4] = biological target: T3, Hydrolase, alpha/beta hydrolase fold family (Mycobacterium tuberculosis) (UniProt O69638); assay: Inhibition of Mycobacterium tuberculosis recombinant EphE expressed in Escherichia coli BL21 using CMNPC as substrate at 10 nM after 30 mins by fluorescent assay relative to control
T3 sequence (whole entry): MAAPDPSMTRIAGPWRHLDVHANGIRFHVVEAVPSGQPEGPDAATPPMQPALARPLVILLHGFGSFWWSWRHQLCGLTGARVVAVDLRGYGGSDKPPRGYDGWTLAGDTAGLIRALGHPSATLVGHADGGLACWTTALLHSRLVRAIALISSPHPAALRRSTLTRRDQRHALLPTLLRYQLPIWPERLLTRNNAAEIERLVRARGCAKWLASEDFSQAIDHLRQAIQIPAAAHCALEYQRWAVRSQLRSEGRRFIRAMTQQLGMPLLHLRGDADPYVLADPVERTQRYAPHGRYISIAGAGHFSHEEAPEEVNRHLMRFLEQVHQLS

Bacillus anthracis = assay: microbe, parasite or virus in culture
Escherichia coli [5] = assay: Antibacterial activity against Escherichia coli K12; assay type: functional; settings: K-12
[6] = test system: Mycobacterium tuberculosis; assay: microbe, parasite or virus in culture; settings: H37Rv, 168 h
[7] = test system: Mycolicibacterium smegmatis; assay: microbe, parasite or virus in culture; settings: str. MC2 155, 168 h
Vero = assay: Cytotoxicity against african green monkey Vero cells after 72 hrs by MTT assay; assay type: cell-based; settings: Chlorocebus sabaeus

SMILES | inhibition [1] [%] | MIC (Enterococcus faecium) [µg/mL] | MIC (Staphylococcus aureus) [µg/mL] | MIC (Escherichia coli [2]) [µg/mL] | MIC (Klebsiella pneumoniae) [µg/mL] | IC50 [3] [nM] | MIC (Pseudomonas aeruginosa) [µg/mL] | MIC (Enterococcus faecalis) [µg/mL] | inhibition [4] [%] | MIC (Bacillus anthracis) [µg/mL] | MIC (Escherichia coli [5]) [µg/mL] | MIC [6] [µg/mL] | MIC [7] [µg/mL] | IC50 (Vero) [µg/mL]
CN(C(=O)NC1C2CC3CC(C2)CC1C3)c1ccc(F)c(F)c1F (stereo not given) | 6.7 | > 200 | > 200 | 25 (≈ 73.9 µM) | > 200 | 38.1 | > 200 | > 200 | 22.8 | > 200 | > 200 | 6 (≈ 17.7 µM) |  | 
CCCCCCCNC(=O)Nc1cccc(C(F)(F)F)c1F | 5.5 | > 200 | > 200 | > 200 | > 200 | 0.4 | > 200 | > 200 | 46.8 | > 200 | > 200 | 3 (≈ 9.37 µM) | 100 (≈ 312 µM) | 
O=C(Nc1ccccc1)Nc1ccccc1 |  |  |  |  |  | 390 |  |  |  |  |  |  |  | 
O=C(Nc1ccc(F)c(F)c1F)NC1CCCCCCC1 | 95.7 | > 200 |  | 3.12 (≈ 10.4 µM) | > 200 | 0.4 | > 200 | > 200 | 91.6 | > 200 | > 200 |  | 0.8 (≈ 2.66 µM) | 63.4 (≈ 211 µM)
O=C(Nc1ccc(F)c(F)c1F)OC1C2CC3CC(C2)CC1C3 (stereo not given) | 10.2 | > 200 | > 200 | 12.5 (≈ 38.4 µM) | > 200 | 464 | > 200 | > 200 | 21.4 | > 200 | > 200 | 6 (≈ 18.4 µM) | 50 (≈ 154 µM) | 
Fc1ccc(NC(=S)NC2C3CC4CC(C3)CC2C4)c(F)c1F (stereo not given) | 21.3 | > 200 | > 200 | 3.12 (≈ 9.17 µM) | > 200 | 4.8 | > 200 | > 200 | 35.5 | 3.12 (≈ 9.17 µM) | > 200 | 0.8 (≈ 2.35 µM) |  | 
CC(C)CCOc1ccc(NC(=O)Nc2ccc(OCCC(C)C)cc2)cc1 | 14.6 | > 200 | > 200 | 3.12 (≈ 8.11 µM) | > 200 | 6.5 | > 200 | > 200 | 88.8 | > 200 | > 200 | 200 (≈ 520 µM) | > 200 | 
CC1(C)C2CCC(CNC(=O)Nc3ccc(F)c(F)c3F)C1C2 (stereo not given) | 38.6 | > 200 | 3.13 (≈ 9.59 µM) |  | > 200 | 0.4 | > 200 | > 200 | 103 | 1.6 (≈ 4.9 µM) | > 200 | 0.2 (≈ 0.613 µM) | 1.6 (≈ 4.9 µM) | 15.5 (≈ 47.5 µM)
O=C(Nc1ccc(F)c(F)c1F)NC12CC3CC(CC(C3)C1)C2 | 89.7 | > 200 |  | > 200 | > 200 |  | > 200 | > 200 | 92.2 | > 200 | > 200 |  | > 200 | 726 (≈ 2240 µM)
O=C(Nc1ccc(F)c(F)c1F)NC1C2CC3CC(C2)CC1C3 (stereo not given) |  | > 200 | > 200 | > 200 | > 200 |  | > 200 | > 200 | 71.4 | > 200 | > 200 |  |  | 
CC[C@@H](CO)NCCN[C@@H](CC)CO [ETHAMBUTOL] |  |  |  |  |  |  |  |  |  |  |  | 0.01 (≈ 0.0489 µM) |  | 
